Test results from patent publication US8889713B1, “N-substituted tetrahydroisoquinoline benzamides/benzene sulfonamides as anti-cancer agents” (Florida A&M University, priority 2013, dated 2014).
Values after ≈ are worked out from the molar mass of the structure shown.

Tests used:
Format in all cases: cell-based
Ishikawa cells = assay: […]-GLO luminescent cell viability assay, Ishikawa; conditions: Homo sapiens, 72 h at 37° C., 5000 cells/well
Method: (§1) All the compounds were tested in the three cell lines. Different concentrations of compounds, ranging from about 0.01 nM to about 100,000 nM were delivered to […] cells per well, which were then incubated for three days at 37° C., followed by CTG assay.
(§2) In this assay, the number of viable cells in culture is determined based on the quantification of ATP present, which signals the presence of metabolically active cells. Damaged cells are not detected as the ATP leaked from these cells is quickly consumed by ATPases that are also released upon damage). The amount of ATP is determined using a system based on luciferase and D-luciferin resulting in light generation.
(§3) The cell lines were plated in 13, 96 well plates at a density of 5000 cells/well in total volumes of 50 μL in phenol-red free medium and incubated for overnight.
(§4) 25 μL of 40 nM estradiol should be added to all appropriate wells on the plate. […] 25 μL of stocks (containing the compounds to be tested, DMSO and phenol-red free medium) were added to cells and medium already on plate. 50 μL of medium were added to media wells, and 50 μL of mix (contain 32 mL DMSO+768 mL phenol-red free medium) to all vehicle control wells.
(§5) Luminescence results were read on TriLux Luminometer. The luminescent signal is proportional to the number of active cells present in culture. […] As a consequence, the number of metabolically active cells can be directly derived from the luminescent signal using a specific calibration curve. Data were expressed as percentage of untreated control (i.e. treatment value-blank/vehicle value blank), mean±SE for three replications.

[1] = test system: MCF-7 estrogen receptor-positive breast cancer cells; assay: […]-GLO luminescent cell viability assay, MCF-7; conditions: Homo sapiens, MCF7, MCF-7, 72 h at 37° C., 5000 cells/well
Method: as §1, §2, §3, §4, §5

[2] = test system: MDA-MB-231 estrogen receptor-negative breast cancer cell line; assay: […]-GLO luminescent cell viability assay, MDA-MB-231; conditions: Homo sapiens, MDA-MB-231, 72 h at 37° C., 5000 cells/well
Method: as §1, §2, §3, §4, §5

Row | SMILES | IC50 [1] | IC50 [2] | IC50 (Ishikawa cells)
1 | CCCc1ccc(C(=O)NN2CCc3ccccc3C2)cc1 [Redda-GM-3-122, N-(3,4-Dihydroxyisoquinolin-2(1H)-yl)-4-propylbenzamide] | 3.71 µg/mL (≈ 12.6 µM) | 3.26 µg/mL (≈ 11.1 µM) | 0.75 µg/mL (≈ 2.55 µM)
2 | CCc1ccc(C(=O)NN2CCc3c(Br)cccc3C2)cc1 [Redda-GM-4-62, N-(5-Bromo-3,4-dihyroisoquinolin-2(1H)-yl)-4-ethylbenzamide] | 3.5 µg/mL (≈ 9.74 µM) | 6.01 µg/mL (≈ 16.7 µM) | 1.15 µg/mL (≈ 3.2 µM)
3 | CCc1ccc(C(=O)NN2CCc3ccc(OC)cc3C2)cc1 [Redda-EVK-I-074, 4-Ethyl-N-(7-methoxy-3,4-dihydroisoquinolin-2(1H)-yl)benzamide] | 0.25 µg/mL (≈ 0.805 µM) | 0.23 µg/mL (≈ 0.741 µM) | 0.11 µg/mL (≈ 0.354 µM)
4 | O=C(NN1CCc2ccccc2C1)c1ccc(C(F)(F)F)cc1 [Redda-GM-3-143, N-(3,4-Dihydroisoquinolin-2-(1H)-yl)-4-(trifluoromethyl)benzamide] | 3.15 µg/mL (≈ 9.83 µM) | 4.85 µg/mL (≈ 15.1 µM) | 0.5 µg/mL (≈ 1.56 µM)
5 | CCCCc1ccc(C(=O)NN2CCc3ccccc3C2)cc1 [Redda-GM-3-156, 4-Butyl-N-(3,4-dihydrozyisoquinolin-2(1H)-yl)benzamide] | 3.05 µg/mL (≈ 9.89 µM) | 7.03 µg/mL (≈ 22.8 µM) | 0.96 µg/mL (≈ 3.11 µM)

Now from value to compound, other results behind:

Row | IC50 [1] | IC50 [2] | SMILES | IC50 (Ishikawa cells)
6 | 7.38 µg/mL (≈ 23.8 µM) | 10.5 µg/mL (≈ 33.7 µM) | CCc1ccc(C(=O)NN2CCc3c(cccc3OC)C2)cc1 [Redda-EVK-I-062, 4-Ethyl-N-(5-methoxy-3,4-dihydroisoquinolin-2(1H)-yl)benzamide] | 6.34 µg/mL (≈ 20.4 µM)
7 | 2.34 µg/mL (≈ 5.34 µM) | 1.71 µg/mL (≈ 3.9 µM) | CCc1ccc(C(=O)NN2CCc3c(Br)ccc(Br)c3C2)cc1 [Redda-EVK-I-079, N-(5,8-Dibromo-3,4-dihydroisoquinolin-2(1H)-yl)-4-ethylbenzamide] | 0.84 µg/mL (≈ 1.92 µM)
8 | 0.43 µg/mL (≈ 1.53 µM) | 0.37 µg/mL (≈ 1.32 µM) | CCc1ccc(C(=O)NN2CCc3ccccc3C2)cc1 [Redda-GM-3-121, N-(3,4-Dihydroisoquinolin-2(1H)-yl)-4-ethylbenzamide] | 0.01 µg/mL (≈ 0.0357 µM)
9 | 0.7 µg/mL (≈ 2.11 µM) | 4.34 µg/mL (≈ 13.1 µM) | O=C(NN1CCc2ccccc2C1)c1ccc(Br)cc1 [Redda-GM-3-135, 4-Bromo-N-(3,4-dihydroisoquinolin-2(1H)-yl)benzamide] | 0.02 µg/mL (≈ 0.0604 µM)
10 | 2.3 µg/mL (≈ 7.09 µM) | 4.7 µg/mL (≈ 14.5 µM) | CC(C)(C)c1ccc(C(=O)NN2CCc3ccc(O)cc3C2)cc1 [Redda-GM-4-40, 4-(tert-Butyl)-N-(7-hydroxy-3,4-dihydroisoquinolin-2(1H)-yl)benzamide] | 0.95 µg/mL (≈ 2.93 µM)
11 | 15 µg/mL (≈ 48.5 µM) | 13.1 µg/mL (≈ 42.4 µM) | O=C(NN1CCc2ccccc2C1)c1nc2ccccc2s1 [Redda-GM-3-177, N-(3,4-Dihydroisoquinolin-2-(1H)-yl)benzo[d]thiazole-2-carboxamide] | 8.98 µg/mL (≈ 29 µM)
12 | 0.2 µg/mL (≈ 0.675 µM) | 0.13 µg/mL (≈ 0.439 µM) | CCc1ccc(C(=O)NN2CCc3ccc(O)cc3C2)cc1 [Redda-GM-4-53, 4-Ethyl-N-(7-hydroxy-3,4-dihydroisoquinolin-2-(1H)-yl)benzamide] | 0.08 µg/mL (≈ 0.27 µM)
